Read-outs that look alike come from different tables or passages of the source.
Experiments:
CHK1sv1 = target: T1, CHK1sv1 (Homo sapiens, UniProt O14757); test: CHK1sv1 kinase assay (Homogenous Time-Resolved Fluorescence, synthetic peptide substrate); type: biochemical
T1 construct: made in house; host or cells: SF9 insect cells (baculovirus, pVL1393 transfer vector)
T1 sequence (O14757 with tags, fused parts or gaps): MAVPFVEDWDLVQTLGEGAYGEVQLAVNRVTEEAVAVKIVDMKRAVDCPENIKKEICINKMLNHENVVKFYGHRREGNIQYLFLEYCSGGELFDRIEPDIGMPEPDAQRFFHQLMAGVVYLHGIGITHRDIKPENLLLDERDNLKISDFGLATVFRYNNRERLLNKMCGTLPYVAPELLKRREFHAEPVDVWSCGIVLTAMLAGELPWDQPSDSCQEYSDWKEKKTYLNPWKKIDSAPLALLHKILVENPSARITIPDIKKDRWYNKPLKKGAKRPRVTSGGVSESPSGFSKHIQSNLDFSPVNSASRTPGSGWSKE
Procedure: CHK1sv1 activity was assayed in vitro using a synthetic peptide substrate. The phophopeptide product was quantitated using a Homogenous Time-Resolved Fluorescence assay system (Park et al., 1999, Anal. Biochem. 269:94-104). The reaction mixture contained 40 mM HEPES, pH 7.3; 100 mM NaCl; 10 mM MgCl2; 2 mM dithiothreitol; 0.1% BSA; 0.1 mM ATP; 0.5 μM peptide substrate; and 0.1 nM CHK1sv1 enzyme in a final volume of 40 μl. […] The kinase reaction was incubated for 30 minutes at 22° C., and then terminated with 60 μl Stop/Detection Buffer (40 mM HEPES, pH 7.3; 10 mM EDTA; 0.125% Triton X-100; 1.25% BSA; 250 nM PhycoLink Streptavidin-Allophycocyanin (APC) Conjugate (Prozyme, San Leandro, Calif.); and […] Europium-chelate labeled anti-phosphotyrosine antibody (PY20, Perkin Elmer, Boston, Mass.)). The reaction was allowed to equilibrate for 2 hours at 22° C., and relative fluorescent units were read on a Discovery plate reader (Packard Biosciences). ATP Km was determined by varying ATP concentration from 0.003 to 3 mM in the reaction described above and determining the relative enzymatic rates. […] CHK1sv1 Vmax was calculated by determining the amount of phospho-peptide product formed per microgram of CHKsv1 when both ATP and CDC25C peptide substrate are at saturating concentrations.

reference CHK1 = target: T2, reference CHK1 (Homo sapiens, UniProt O14757); conditions: cited from earlier work
T2 sequence (O14757 1-476): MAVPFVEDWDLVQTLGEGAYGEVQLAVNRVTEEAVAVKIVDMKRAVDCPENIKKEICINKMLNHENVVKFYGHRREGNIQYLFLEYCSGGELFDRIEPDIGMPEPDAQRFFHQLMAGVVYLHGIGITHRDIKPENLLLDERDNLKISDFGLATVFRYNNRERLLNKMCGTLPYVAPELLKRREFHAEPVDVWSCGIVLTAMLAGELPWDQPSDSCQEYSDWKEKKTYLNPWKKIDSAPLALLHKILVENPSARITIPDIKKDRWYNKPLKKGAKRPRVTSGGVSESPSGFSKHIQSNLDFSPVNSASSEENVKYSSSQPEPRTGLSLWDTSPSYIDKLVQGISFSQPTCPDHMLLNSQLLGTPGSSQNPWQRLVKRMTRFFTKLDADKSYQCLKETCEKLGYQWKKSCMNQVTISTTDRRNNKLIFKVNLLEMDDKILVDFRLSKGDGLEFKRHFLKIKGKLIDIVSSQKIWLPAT

[1] = read-out: CHK1sv1 inhibition by derivatives of staurosporin, IC50 values, CHK1sv1 enzyme 0.1 nM, 0.1 mM ATP, 0.5 μM peptide substrate, 30 minutes at 22° C.

In the case of Cn1c2ccccc2c2c3c(c4c5ccccc5n(CCC#N)c4c21)CNC3=O [Gö6976], the IC50 (CHK1sv1; [1]) is listed as 0.75 nM and the IC50 (reference CHK1; previously published (Davies et al., 2000), read-out: IC50 value for the reference CHK1 inhibited by Gö6976) is listed as 3 nM.

For COC(=O)[C@@]1(O)C[C@H]2O[C@]1(C)n1c3ccccc3c3c4c(c5c6ccccc6n2c5c31)C(=O)NC4 [K252A], the IC50 (CHK1sv1) was 50 nM.

Cn1cc(C2=C(c3cn(CCCN)c4ccccc34)C(=O)NC2=O)c2ccccc21 [RO317549] gave an IC50 (CHK1sv1; [1]) of 125 nM.

Work on CN(C)C[C@H]1CCn2c(c(C3=C(c4cn(C)c5ccccc45)C(=O)NC3=O)c3ccccc32)C1 [RO-320432] yielded an IC50 (CHK1sv1; CHK1sv1 enzyme 0.1 nM, 0.1 mM ATP, 0.5 μM peptide substrate, 30 minutes at 22° C.) of 390 nM.

In the case of “CDC25C substrate: peptide derived from the known CHK1 kinase substrate CDC25C, GLYRSPSMPENLNR (SynPep) (listed as Homo sapiens)”, the Km (CHK1sv1; CDC25C-derived peptide varied from 0.0003 to 1 mM) is given as 120 µM and the Km (reference CHK1; previously described (O'Neill et al., 2002; Jackson et al., 2000), read-out: Km (CDC25C substrate)) is given as 12 µM.
